From the NIST ThermoML archive (doi:10.1021/acs.jced.6b00959)

Test: molar heat capacity at constant pressure
Conditions: Liquid, Flow calorimetry

C=C(F)C(F)(F)F [2,3,3,3-tetrafluoro-1-propene]
Conditions | molar heat capacity at constant pressure [J/K/mol]
303.53 K, 2030 kPa | 157.15
303.55 K, 2530 kPa | 156.01
303.58 K, 1570 kPa | 160.11
303.6 K, 8010 kPa | 146.09
303.6 K, 8490 kPa | 146.2
303.6 K, 10010 kPa | 145.75
303.61 K, 6980 kPa | 146.66
303.61 K, 7490 kPa | 146.89
303.61 K, 8980 kPa | 145.75
303.61 K, 9470 kPa | 145.75
303.67 K, 10990 kPa | 144.49
303.72 K, 3040 kPa | 154.41
303.72 K, 10520 kPa | 144.95
303.73 K, 5000 kPa | 150.88
303.74 K, 3530 kPa | 154.18
303.75 K, 4020 kPa | 153.16
303.75 K, 5520 kPa | 150.19
303.77 K, 6510 kPa | 148.6
303.79 K, 11450 kPa | 144.03
303.79 K, 12070 kPa | 143.69
303.8 K, 5980 kPa | 148.82
303.81 K, 4520 kPa | 151.45
313.61 K, 6020 kPa | 154.3
313.63 K, 5000 kPa | 157.04
313.64 K, 4490 kPa | 158.18
313.64 K, 7500 kPa | 151.68
313.64 K, 7980 kPa | 151.11
313.65 K, 8490 kPa | 150.65
313.66 K, 1510 kPa | 166.04
313.66 K, 4000 kPa | 159.77
313.66 K, 6990 kPa | 152.82
313.67 K, 2010 kPa | 165.36
313.69 K, 2510 kPa | 165.02
313.69 K, 3000 kPa | 164.11
313.69 K, 6500 kPa | 153.96
313.7 K, 9500 kPa | 149.85
313.7 K, 10010 kPa | 149.51
313.7 K, 11460 kPa | 147.8
313.72 K, 3510 kPa | 162.62
313.72 K, 8970 kPa | 150.31
313.72 K, 10500 kPa | 148.94
313.72 K, 10980 kPa | 148.6
313.72 K, 12040 kPa | 147.46
313.79 K, 5490 kPa | 154.53
323.62 K, 2020 kPa | 170.26
323.63 K, 6940 kPa | 155.67
323.64 K, 7520 kPa | 154.98
323.64 K, 8000 kPa | 154.41
323.64 K, 8510 kPa | 153.73
323.65 K, 2500 kPa | 168.67
323.65 K, 9540 kPa | 152.25
323.66 K, 8960 kPa | 153.39
323.66 K, 9990 kPa | 152.02
323.68 K, 3010 kPa | 167.41
323.68 K, 10980 kPa | 151.11
323.69 K, 3510 kPa | 165.93
323.69 K, 4520 kPa | 162.51
323.69 K, 6490 kPa | 157.61
323.69 K, 10530 kPa | 151.79
323.7 K, 11470 kPa | 150.31
323.71 K, 3990 kPa | 164.79
323.71 K, 5020 kPa | 161.37
323.71 K, 5500 kPa | 159.89
323.71 K, 5990 kPa | 159.09
323.73 K, 12010 kPa | 150.08
333.61 K, 5490 kPa | 165.47
333.63 K, 3000 kPa | 179.5
333.63 K, 5980 kPa | 164.68
333.66 K, 3480 kPa | 177.56
333.66 K, 4500 kPa | 170.72
333.66 K, 7020 kPa | 161.71
333.67 K, 2080 kPa | 185.77
333.68 K, 2520 kPa | 183.95
333.68 K, 5000 kPa | 169.12
333.68 K, 6510 kPa | 162.74
333.69 K, 7500 kPa | 161.03
333.69 K, 9010 kPa | 159.09
333.69 K, 9990 kPa | 156.69
333.71 K, 4040 kPa | 175.4
333.72 K, 8010 kPa | 160.68
333.72 K, 8500 kPa | 159.66
333.72 K, 9490 kPa | 157.61
333.79 K, 10520 kPa | 155.21
333.79 K, 11000 kPa | 154.75
333.82 K, 11480 kPa | 154.07
333.82 K, 12030 kPa | 153.61
343.67 K, 10510 kPa | 157.83
343.68 K, 2530 kPa | 204.93
343.68 K, 3510 kPa | 187.26
343.68 K, 11500 kPa | 156.58
343.69 K, 11060 kPa | 156.92
343.7 K, 4490 kPa | 178.48
343.7 K, 9470 kPa | 159.89
343.7 K, 12010 kPa | 155.89
343.71 K, 7000 kPa | 165.47
343.72 K, 6040 kPa | 169.35
343.73 K, 6510 kPa | 168.55
343.73 K, 7500 kPa | 164.45
343.73 K, 7980 kPa | 163.76
343.74 K, 3990 kPa | 183.49
343.75 K, 5020 kPa | 175.74
343.75 K, 10020 kPa | 159.54
343.77 K, 8520 kPa | 163.19
343.79 K, 3010 kPa | 196.61
343.8 K, 9010 kPa | 162.51
343.81 K, 5560 kPa | 173.23
353.69 K, 10520 kPa | 163.99
353.71 K, 6510 kPa | 177.79
353.71 K, 8500 kPa | 169.24
353.73 K, 4510 kPa | 196.61
353.73 K, 4990 kPa | 190.11
353.73 K, 5500 kPa | 185.77
353.73 K, 11010 kPa | 162.85
353.74 K, 8990 kPa | 168.33
353.75 K, 6990 kPa | 175.97
353.76 K, 11520 kPa | 162.62
353.77 K, 9530 kPa | 166.96
353.78 K, 6040 kPa | 182.58
353.78 K, 12010 kPa | 161.94
353.79 K, 7490 kPa | 173.8
353.79 K, 10010 kPa | 165.93
353.81 K, 7990 kPa | 172.66
363.69 K, 6030 kPa | 189.42
363.73 K, 10520 kPa | 167.98
363.74 K, 5480 kPa | 198.2
363.75 K, 4510 kPa | 225
363.75 K, 7990 kPa | 175.85
363.76 K, 7020 kPa | 181.78
363.76 K, 10010 kPa | 169.12
363.76 K, 11050 kPa | 167.3
363.77 K, 6500 kPa | 186.46
363.78 K, 4990 kPa | 209.38
363.78 K, 7530 kPa | 178.7
363.78 K, 8990 kPa | 172.09
363.78 K, 11500 kPa | 166.96
363.79 K, 8510 kPa | 174.26
363.8 K, 9490 kPa | 171.06
363.83 K, 12080 kPa | 166.96
373.09 K, 4510 kPa | 297.19
373.19 K, 4990 kPa | 241.54
373.24 K, 5480 kPa | 217.82
373.28 K, 5980 kPa | 202.31
373.3 K, 6490 kPa | 191.25
373.3 K, 7000 kPa | 185.09
373.3 K, 7520 kPa | 180.3
373.32 K, 8030 kPa | 177.33
373.32 K, 8510 kPa | 174.94
373.32 K, 8990 kPa | 172.32
373.34 K, 9510 kPa | 171.52
373.36 K, 9990 kPa | 170.95
373.38 K, 10530 kPa | 169.58
373.39 K, 11020 kPa | 168.44
373.4 K, 11510 kPa | 167.87
373.42 K, 11980 kPa | 167.41
